In US20240317735A1, “HYDROISOQUINOLINE OR HYDRONAPHTHYRIDINE COMPOUNDS FOR THE TREATMENT OF AUTOIMMUNE DISEASE” (Hoffmann-La Roche Inc., priority 2020, published 2024):

Target: T1, human TLR8 (Homo sapiens, UniProt Q9NR97)
T1 construct: host or cells: HEK293 (HEK-Blue hTLR8)
T1 sequence (Q9NR97 27-1041): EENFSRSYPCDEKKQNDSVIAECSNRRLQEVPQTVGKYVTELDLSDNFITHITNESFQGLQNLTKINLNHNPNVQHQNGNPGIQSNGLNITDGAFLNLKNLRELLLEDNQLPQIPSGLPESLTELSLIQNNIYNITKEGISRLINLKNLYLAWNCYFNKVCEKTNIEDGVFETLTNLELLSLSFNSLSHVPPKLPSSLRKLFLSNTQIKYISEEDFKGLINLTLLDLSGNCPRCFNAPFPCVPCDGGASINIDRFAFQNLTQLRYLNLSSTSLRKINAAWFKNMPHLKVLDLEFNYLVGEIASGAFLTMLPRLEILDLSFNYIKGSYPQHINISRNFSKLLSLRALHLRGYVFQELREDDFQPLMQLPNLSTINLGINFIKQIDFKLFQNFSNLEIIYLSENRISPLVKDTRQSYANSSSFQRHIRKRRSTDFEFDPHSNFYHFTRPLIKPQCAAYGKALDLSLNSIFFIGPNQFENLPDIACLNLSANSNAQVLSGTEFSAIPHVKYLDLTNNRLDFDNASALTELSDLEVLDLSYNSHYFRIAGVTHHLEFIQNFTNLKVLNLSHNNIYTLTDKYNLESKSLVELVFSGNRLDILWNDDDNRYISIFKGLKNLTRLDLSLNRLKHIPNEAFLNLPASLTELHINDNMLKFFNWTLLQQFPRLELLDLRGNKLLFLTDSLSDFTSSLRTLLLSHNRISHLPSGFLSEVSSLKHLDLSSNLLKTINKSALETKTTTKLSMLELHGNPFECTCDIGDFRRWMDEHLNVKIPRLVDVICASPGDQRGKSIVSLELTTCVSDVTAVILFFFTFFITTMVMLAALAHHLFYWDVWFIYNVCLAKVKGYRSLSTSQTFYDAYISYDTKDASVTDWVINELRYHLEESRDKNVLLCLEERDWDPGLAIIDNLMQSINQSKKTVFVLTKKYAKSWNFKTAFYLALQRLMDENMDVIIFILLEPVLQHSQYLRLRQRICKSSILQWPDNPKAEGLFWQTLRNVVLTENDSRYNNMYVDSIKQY
Assay: HEK293-Blue-hTLR-8 cells assay (SEAP reporter, R848 stimulation)
Format: cell-based
Conditions: HEK293-Blue-hTLR8 cells, R848, 20 hrs; read-out: HEK/hTLR8 IC50
Protocol: The following tests were carried out in order to determine the activity of the compounds of formula (I) and (Ia) in HEK293-Blue-hTLR-7/8/9 cells assay.
A stable HEK293-Blue-hTLR-8 cell line was purchased from InvivoGen (Cat. #: hkb-htlr8, San Diego, California, USA). These cells were originally designed for studying the stimulation of human TLR8 by monitoring the activation of NF-κB. A SEAP (secreted embryonic alkaline phosphatase) reporter gene was placed under the control of the IFN-β minimal promoter fused to five NF-κB and AP-1-binding sites. The SEAP was induced by activating NF-κB and AP-1 via stimulating HEK-Blue hTLR8 cells with TLR8 ligands. Therefore the reporter expression was declined by TLR8 antagonist under the stimulation of a ligand, such as R848, for incubation of 20 hrs. The cell culture supernatant SEAP reporter activity was determined using QUANTI-Blue™ kit (Cat. #: rep-qb1, Invivogen, San Diego, Ca, USA) at a wavelength of 640 nm, a detection medium that turns purple or blue in the presence of alkaline phosphatase.
HEK293-Blue-hTLR8 cells were incubated at a density of 250,000˜450,000 cells/mL in a volume of 170 μL in a 96-well plate in Dulbecco's Modified Eagle's medium (DMEM) containing 4.5 g/L glucose, […] penicillin, […], […] Normocin, 2 mM L-glutamine, 10% (v/v) heat-inactivated fetal bovine serum with addition of 20 μL test compound in a serial dilution in the presence of final DMSO at 1% and 10 μL of 60 uM R848 in above DMEM, perform incubation under 37° C. in a C02 incubator for 20 hrs. Then 20 μL of the supernatant from each well was incubated with 180 μL Quanti-blue substrate solution at 37° C. for 2 hrs and the absorbance was read at 620-655 nm using a spectrophotometer. The signaling pathway that TLR8 activation leads to downstream NF-κB activation has been widely accepted, and therefore similar reporter assay was modified for evaluating TLR8 antagonist.

## C[C@H]1CN(c2ccnc3c2cnn3C)Cc2ccc(N3CCC(N4CC[C@@H](N)[C@H](O)C4)CC3)cc21 [Example 29, trans-4-amino-1-[1-[(4R)-4-methyl-2-(1-methylpyrazolo[3,4-b]pyridin-4-yl)-3,4-dihydro-1H-isoquinolin-6-yl]-4-piperidyl]piperidin-3-ol]
  IC50: 2 nM

## C[C@H]1CN(c2ccnc3c2cnn3C)Cc2ccc(N3CCC(O)(CN(C)C)CC3)cc21 [Example 13, 4-[(dimethylamino)methyl]-1-[(4R)-4-methyl-2-(1-methylpyrazolo[3,4-b]pyridin-4-yl)-3,4-dihydro-1H-isoquinolin-6-yl]piperidin-4-ol]
  IC50: 2 nM

## Cc1cc(N2Cc3ccc(N4C[C@@H](F)[C@@H](N)C4)nc3[C@@H](C)C2)c2cnn(C)c2n1 [Example 69, (3S,4R)-4-fluoro-1-[(8S)-6-(1,6-dimethylpyrazolo[3,4-b]pyridin-4-yl)-8-methyl-7,8-dihydro-5H-1,6-naphthyridin-2-yl]pyrrolidin-3-amine]
  IC50: 9 nM

## Cc1cc(N2Cc3ccc(N4C[C@@H](N)[C@H](O)C4)cc3[C@@H](C)C2)c2cnn(C)c2n1 [Example 47, trans-4-amino-1-[(4R)-2-(1,6-dimethylpyrazolo[3,4-b]pyridin-4-yl)-4-methyl-3,4-dihydro-1H-isoquinolin-6-yl]pyrrolidin-3-ol]
  IC50: 3 nM

## C[C@H]1CN(c2ccnc3c2cnn3C)Cc2ccc(N3CC4(CCNCC4)OC3=O)cc21 [Example 26, 3-[(4R)-4-methyl-2-(1-methylpyrazolo[3,4-b]pyridin-4-yl)-3,4-dihydro-1H-isoquinolin-6-yl]-1-oxa-3,8-diazaspiro[4.5]decan-2-one]
  IC50: 10 nM

## C[C@H]1CN(c2ccnc3c2cnn3C)Cc2ccc(N3CCN(C(=O)C4CNCCO4)CC3)cc21 (stereo partly drawn) [Example 12, morpholin-2-yl-[4-[(4R)-4-methyl-2-(1-methylpyrazolo[3,4-b]pyridin-4-yl)-3,4-dihydro-1H-isoquinolin-6-yl]piperazin-1-yl]methanone]
  IC50: 8 nM

## C[C@H]1CN(c2ccnc3c2cnn3C)Cc2ccc(O[C@@H]3C[C@H]4CNCCN4C3)cc21 [Example 42, (4R)-4-methyl-2-(1-methylpyrazolo[3,4-b]pyridin-4-yl)-6-[[(7R,8aS)-1,2,3,4,6,7,8,8a-octahydropyrrolo[1,2-a]pyrazin-7-yl]oxy]-3,4-dihydro-1H-isoquinoline]
  IC50: 2 nM

## CO[C@H]1CN(c2ccc3c(n2)[C@@H](C)CN(c2cc(C)nc4c2cnn4C)C3)CC[C@@H]1N [Example 65, (3S,4S)-3-methoxy-1-[(8S)-6-(1,6-dimethylpyrazolo[3,4-b]pyridin-4-yl)-8-methyl-7,8-dihydro-5H-1,6-naphthyridin-2-yl]piperidin-4-amine]
  IC50: 1 nM

## C[C@H]1CN(c2ccnc3c2cnn3C)Cc2ccc(N3CC4(CCNC4)OC3=O)cc21 (stereo partly drawn) [Example 35, 3-[(4R)-4-methyl-2-(1-methylpyrazolo[3,4-b]pyridin-4-yl)-3,4-dihydro-1H-isoquinolin-6-yl]-1-oxa-3,7-diazaspiro[4.4]nonan-2-one]
  IC50: 14 nM

## CC1CN(c2ccnc3c2cnn3C)Cc2ccc(N3CCC4(CCNCC4)CC3)cc21 (stereo not shown) [Example 4, 3-[4-methyl-2-(1-methylpyrazolo[3,4-b]pyridin-4-yl)-3,4-dihydro-1H-isoquinolin-6-yl]-3,9-diazaspiro[5.5]undecane]
  IC50: 7 nM

## C[C@H]1CN(c2ccnc3c2cnn3C)Cc2ccc(N3CCN[C@H](CO)C3)cc21 [Example 51, [(2S)-4-[(4R)-4-methyl-2-(1-methylpyrazolo[3,4-b]pyridin-4-yl)-3,4-dihydro-1H-isoquinolin-6-yl]piperazin-2-yl]methanol]
  IC50: 4 nM

## C[C@H]1CN(c2ccnc3c2cnn3C)Cc2ccc(N3CC4(CNC4)CC3=O)cc21 [Example 34, 6-[(4R)-4-methyl-2-(1-methylpyrazolo[3,4-b]pyridin-4-yl)-3,4-dihydro-1H-isoquinolin-6-yl]-2,6-diazaspiro[3.4]octan-7-one]
  IC50: 26 nM

## Cn1ncc2c(N3CCc4cc(N5CCNCC5)ccc4C3)ccnc21 [Example 3, 2-(1-methylpyrazolo[3,4-b]pyridin-4-yl)-6-piperazin-1-yl-3,4-dihydro-1H-isoquinoline]
  IC50: 56 nM

## Cc1cc(N2Cc3ccc(OC[C@H]4CNCCN4)cc3[C@@H](C)C2)c2cnn(C)c2n1 [Example 30, (4R)-2-(1,6-dimethylpyrazolo[3,4-b]pyridin-4-yl)-4-methyl-6-[[(2R)-piperazin-2-yl]methoxy]-3,4-dihydro-1H-isoquinoline]
  IC50: 2 nM

## Cc1cc(N2Cc3ccc(N4CCC(O)(CN(C)C)CC4)cc3[C@@H](C)C2)c2cnn(C)c2n1 [Example 14, 4-[(dimethylamino)methyl]-1-[(4R)-2-(1,6-dimethylpyrazolo[3,4-b]pyridin-4-yl)-4-methyl-3,4-dihydro-1H-isoquinolin-6-yl]piperidin-4-ol]
  IC50: 1 nM

## Cc1cc(N2Cc3ccc(N4CC5(CNCCO5)C4)cc3[C@@H](C)C2)c2cnn(C)c2n1 [Example 48, 2-[(4R)-2-(1,6-dimethylpyrazolo[3,4-b]pyridin-4-yl)-4-methyl-3,4-dihydro-1H-isoquinolin-6-yl]-5-oxa-2,8-diazaspiro[3.5]nonane]
  IC50: 6 nM

## CO[C@@H]1CN(C2CCN(c3ccc4c(c3)[C@@H](C)CN(c3ccnc5c3cnn5C)C4)CC2)C[C@H]1N [Example 11, (3R,4R)-4-methoxy-1-[1-[(4R)-4-methyl-2-(1-methylpyrazolo[3,4-b]pyridin-4-yl)-3,4-dihydro-1H-isoquinolin-6-yl]-4-piperidyl]pyrrolidin-3-amine]
  IC50: < 0.3 nM

## Cn1ncc2c(N3Cc4ccc(N5CCC6(CCNCC6)CC5)cc4C(C)(C)C3)ccnc21 [Example 6, 3-[4,4-dimethyl-2-(1-methylpyrazolo[3,4-b]pyridin-4-yl)-1,3-dihydroisoquinolin-6-yl]-3,9-diazaspiro[5.5]undecane]
  IC50: 18 nM

## CO[C@@H]1CN(c2ccc3c(c2)[C@@H](C)CN(c2cc(C)nc4c2cnn4C)C3)C[C@H]1N [Example 23, (3R,4R)-4-methoxy-1-[(4R)-2-(1,6-dimethylpyrazolo[3,4-b]pyridin-4-yl)-4-methyl-3,4-dihydro-1H-isoquinolin-6-yl]pyrrolidin-3-amine]
  IC50: 7 nM

## C[C@H]1CN(c2ccnc3c2cnn3C)Cc2ccc(OC[C@@H]3CNCCN3C=O)cc21 [Example 45, (2S)-2-[[(4R)-4-methyl-2-(1-methylpyrazolo[3,4-b]pyridin-4-yl)-3,4-dihydro-1H-isoquinolin-6-yl]oxymethyl]piperazine-1-carbaldehyde]
  IC50: 10 nM

## C[C@H]1CN(c2ccnc3c2cnn3C)Cc2ccc(OC[C@H]3CNCCN3)cc21 [Example 18, (4R)-4-methyl-2-(1-methylpyrazolo[3,4-b]pyridin-4-yl)-6-[[(2R)-piperazin-2-yl]methoxy]-3,4-dihydro-1H-isoquinoline]
  IC50: 4 nM

## CO[C@@H]1CN(c2cc3c(cn2)CN(c2cc(C)nc4c2cnn4C)C[C@@H]3C)C[C@H]1N [Example 78, (3R,4R)-4-methoxy-1-[(5R)-7-(1,6-dimethylpyrazolo[3,4-b]pyridin-4-yl)-5-methyl-6,8-dihydro-5H-2,7-naphthyridin-3-yl]pyrrolidin-3-amine]
  IC50: 52 nM
